Experiments:
[1] = tested on: lipopolysaccharides from E.coli; test: Dot blot binding of membrane-absorbed peptides to FITC-LPS from E.coli; details: 0-20 μg peptide on PVDF membrane, FIG. 1(a)
Description: (§1) Varying amounts of each peptide (ranging from 0-20 μg in 5 μg increments) were absorbed at a flow rate of approximately 0.15 ml/min. The membrane was blocked with 3% gelatin in TBS for 30 minutes at room temperature with gentle agitation and then was washed three times with TBS. Isolated, fluorescently-labeled lipopolysaccharides (FITC-LPS) from E.coli and Salmonella (Sigma Chemical Co.) were diluted in TBS to a final concentration of […] and were then bound to the membrane at room temperature with gentle agitation. The membrane was then washed three times with TBS and imaged on a Storm 860 (Molecular Dynamics, Sunnyvale, Calif.) in blue fluorescence mode.

[2] = tested on: lipopolysaccharides from Salmonella; test: Dot blot binding of membrane-absorbed peptides to FITC-LPS from Salmonella; details: 0-20 μg peptide on PVDF membrane, FIG. 1(b)
Description: as §1

E.coli 0157: H7 cells = test: Whole-cell binding of E.coli to immobilized Cys-Cecropin P1 (HRP antibody/TMB, absorbance 650 nm); design: species or system E coli serotype 0157: H7 (non-pathogenic); details: immobilized peptide, E.coli 0157: H7 whole cells, FIG. 2
Description: The binding of cecropin P1 to whole E.colicells was tested as follows: Preparation of whole bacterial cells—E coli serotype 0157: H7 (non-pathogenic) cells from a frozen stock were grown overnight in Luria Broth Base (Life Technologies, Inc., Paisely, Scotland). The bacterial cells were collected by centrifugation at 9000×g for 5 min. The cell pellet was washed 2 times with PBS pH 7.2 and collected each time by centrifugation. The washed cell pellet was resuspended in PBS pH 7.2 to a final volume equivalent to the original culture volume. Optical density of the cell suspension was detected on a Beckmann DU840 spectrophotometer at an absorbance of 540 nm. An absorbance of 4.5 is approximately 3.5×10^9 cfu/ml.
Peptide immobilization—Cys-Cecropin P1 (a modified cecropin p1 prepared by solid phase peptide synthesis wherein cysteine is added to the C-terminus of cecropin p1) was diluted into PBS pH 6.5, 1 mM EDTA, 0.0001 mM DTT (Sigma Chemical Co., St. Louis, Mo.) for immobilization onto sulfhydryl-bind strip wells (Corning Inc., Corning, N.Y.). […]
Detection and color development—E.coli 0157: H7 cells (prepared as above) were added to each well containing immobilized cys-cecropin p1 (described as above). […] Absorbance was then measured on a Thermomax microplate reader (Molecular Devices, Sunnyvale, Calif.) at 650 nm.

## Buforin I
[1]
  binding to lipopolysaccharides from E. coli: did not bind
[2]
  binding to lipopolysaccharides from Salmonella: did not bind

## Cecropin P1 (SWLSKTAKKLENSAKKRISEGIAIAIQGGPR; Cecropin-P1; UniProt P14661 14-44, looked up)
[1]
  binding to lipopolysaccharides from E. coli: did bind
[2]
  binding to lipopolysaccharides from Salmonella: did bind
E.coli 0157: H7 cells
  saturation of whole-cell binding occurs at a concentration of: 45 to 50 µg

## Indolicidin
[1]
  binding to lipopolysaccharides from E. coli: did bind
[2]
  binding to lipopolysaccharides from Salmonella: did bind

## PGQ
[1]
  binding to lipopolysaccharides from E. coli: did bind
[2]
  binding to lipopolysaccharides from Salmonella: did bind

Source: patent publication US20040224358A1, “Method for discovering one or more peptides adapted for specific binding to a microorganism of interest” (priority 2002, published 2004)
